Measurements from patent publication US20260015358A1, “BICYCLIC DERIVATIVES, COMPOSITIONS AND USES THEREOF” (Danatlas Pharmaceuticals Co., Ltd., priority 2023, published 2026).
pIC50: −log10 of the molar value.

Assays:
[1] = biological target: T1, WRN [UniPro: Q14191 (WRN_HUMAN), N500-C946] (Homo sapiens (Human), UniProt Q14191); test: WRN unwinding assay (FORKF DNA, fluorescence); type: biochemical; details: Table 14
[2] = biological target: T1, WRN [UniPro: Q14191 (WRN_HUMAN), N500-C946]; test: WRN ATPase assay (ADP-Glo); type: biochemical; details: WRN enzymatic activity assay

T1 sequence (Q14191 500-946): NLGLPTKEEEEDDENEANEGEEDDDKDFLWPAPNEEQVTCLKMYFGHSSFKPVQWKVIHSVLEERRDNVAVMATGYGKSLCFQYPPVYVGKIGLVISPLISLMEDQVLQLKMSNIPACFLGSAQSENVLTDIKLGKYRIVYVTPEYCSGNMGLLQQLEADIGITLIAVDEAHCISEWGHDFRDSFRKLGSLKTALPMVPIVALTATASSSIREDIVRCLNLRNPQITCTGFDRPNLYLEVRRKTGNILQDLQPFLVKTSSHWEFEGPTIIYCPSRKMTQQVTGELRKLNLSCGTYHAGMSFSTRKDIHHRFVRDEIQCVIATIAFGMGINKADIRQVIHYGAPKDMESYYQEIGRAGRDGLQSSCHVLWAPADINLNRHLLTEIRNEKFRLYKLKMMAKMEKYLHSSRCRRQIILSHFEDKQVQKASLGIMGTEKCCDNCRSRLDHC

Structure (SMILES): CCc1c(N2CCN(C(=O)Nc3[nH]cnc3C(F)(F)F)CC2)c(=O)n2nc(C3=CCOCC3)nc2n1CC(=O)Nc1ccc(C(F)(F)F)cc1Cl [Example 30, 4-(4-(2-((2-Chloro-4-(trifluoromethyl)phenyl)amino)-2-oxoethyl)-2-(3,6-dihydro-2H-pyran-4-yl)-5-ethyl-7-oxo-4,7-dihydro-[1,2,4]triazolo[1,5-a]pyrimidin-6-yl)-N-(4-(trifluoromethyl)-1H-imidazol-5-yl)piperazine-1-carboxamide]
- pIC50 [1]: > 7.00
- pIC50 [2]: 6.00 to 7.00

Structure (SMILES): CCc1c(N2CCN(C(=O)c3cnn4ccnc4c3O)CC2)c(=O)n2nc(C3=CCOCC3)nc2n1CC(=O)Nc1ccc(C(F)(F)F)cc1Cl [Example 206, N-(2-Chloro-4-(trifluoromethyl)phenyl)-2-(2-(3,6-dihydro-2H-pyran-4-yl)-5-ethyl-6-(4-(8-hydroxyimidazo[1,2-b]pyridazine-7-carbonyl)piperazin-1-yl)-7-oxo-[1,2,4]triazolo[1,5-a]pyrimidin-4(7H)-yl)acetamide]
- pIC50 [1]: > 7.00
- pIC50 [2]: > 7.00

Structure (SMILES): CCc1c(N2CCN(C(=O)CNC(=O)C(C)(C)C)CC2)c(=O)n2nc(C3=CCOCC3)nc2n1CC(=O)Nc1ccc(C(F)(F)F)cc1Cl [Example 169, N-(2-(4-(4-(2-((2-Chloro-4-(trifluoromethyl)phenyl)amino)-2-oxoethyl)-2-(3,6-dihydro-2H-pyran-4-yl)-5-ethyl-7-oxo-4,7-dihydro-[1,2,4]triazolo[1,5-a]pyrimidin-6-yl)piperazin-1-yl)-2-oxoethyl)pivalamide]
- pIC50 [1]: > 7.00
- pIC50 [2]: 6.00 to 7.00

Structure (SMILES): CCc1c(N2CCN(C(=O)CNC(=O)c3cccc(F)c3)CC2)c(=O)n2nc(C3=CCOCC3)nc2n1CC(=O)Nc1ccc(C(F)(F)F)cc1Cl [Example 99, N-(2-(4-(4-(2-((2-Chloro-4-(trifluoromethyl)phenyl)amino)-2-oxoethyl)-2-(3,6-dihydro-2H-pyran-4-yl)-5-ethyl-7-oxo-4,7-dihydro-[1,2,4]triazolo[1,5-a]pyrimidin-6-yl)piperazin-1-yl)-2-oxoethyl)-3-fluorobenzamide]
- pIC50 [1]: > 7.00
- pIC50 [2]: > 7.00

Structure (SMILES): [2H]C([2H])(NC(=O)c1cc(NC)ccc1F)C(=O)N1CCN(c2c(CC)n(CC(=O)Nc3ccc(C(F)(F)F)cc3F)c3nc(C4=CCOCC4)nn3c2=O)CC1 [Example 209, N-(2-(4-(2-(3,6-Dihydro-2H-pyran-4-yl)-5-ethyl-4-(2-((2-fluoro-4-(trifluoromethyl)phenyl)amino)-2-oxoethyl)-7-oxo-4,7-dihydro-[1,2,4]triazolo[1,5-a]pyrimidin-6-yl)piperazin-1-yl)-2-oxoethyl-1,1-d2)-2-fluoro-5-(methylamino)benzamide]
- pIC50 [1]: > 7.00
- pIC50 [2]: > 7.00

Structure (SMILES): CCc1c(N2CCN(C(=O)CNC(=O)Cc3ccc(F)cc3)CC2)c(=O)n2nc(C3=CCOCC3)nc2n1CC(=O)Nc1ccc(C(F)(F)F)cc1Cl [Example 177, N-(2-Chloro-4-(trifluoromethyl)phenyl)-2-(2-(3,6-dihydro-2H-pyran-4-yl)-5-ethyl-6-(4-((2-(4-fluorophenyl)acetyl)glycyl)piperazin-1-yl)-7-oxo-[1,2,4]triazolo[1,5-a]pyrimidin-4(7H)-yl)acetamide]
- pIC50 [1]: > 7.00
- pIC50 [2]: > 7.00

Structure (SMILES): CCc1c(N2CCN(C(=O)c3cnn4cncc4c3O)CC2)c(=O)n2nc(C3=CCOCC3)nc2n1CC(=O)Nc1ccc(C(F)(F)F)cc1Cl [Example 201, N-(2-Chloro-4-(trifluoromethyl)phenyl)-2-(2-(3,6-dihydro-2H-pyran-4-yl)-5-ethyl-6-(4-(4-hydroxyimidazo[1,5-b]pyridazine-3-carbonyl)piperazin-1-yl)-7-oxo-[1,2,4]triazolo[1,5-a]pyrimidin-4(7H)-yl)acetamide]
- pIC50 [1]: > 7.00
- pIC50 [2]: > 7.00

Structure (SMILES): CCOc1nc2n(CC(=O)Nc3ccc(C(F)(F)F)cc3Cl)c(CC)c(N3CCN(C(=O)CNC(=O)c4ccccc4F)CC3)c(=O)n2n1 [Example 239, N-(2-(4-(4-(2-((2-Chloro-4-(trifluoromethyl)phenyl)amino)-2-oxoethyl)-2-ethoxy-5-ethyl-7-oxo-4,7-dihydro-[1,2,4]triazolo[1,5-a]pyrimidin-6-yl)piperazin-1-yl)-2-oxoethyl)-2-fluorobenzamide]
- pIC50 [1]: 6.00 to 7.00
- pIC50 [2]: 6.00 to 7.00

Structure (SMILES): CCc1c(N2CCN(C(=O)CNC(=O)Nc3ccccc3F)CC2)c(=O)n2nc(C3=CCOCC3)nc2n1CC(=O)Nc1ccc(C(F)(F)F)cc1Cl [Example 180, N-(2-Chloro-4-(trifluoromethyl)phenyl)-2-(2-(3,6-dihydro-2H-pyran-4-yl)-5-ethyl-6-(4-(((2-fluorophenyl)carbamoyl)glycyl)piperazin-1-yl)-7-oxo-[1,2,4]triazolo[1,5-a]pyrimidin-4(7H)-yl)acetamide]
- pIC50 [1]: > 7.00
- pIC50 [2]: > 7.00

Structure (SMILES): CCc1c(N2CCC(NC(=O)CNC(=O)c3ccccc3)CC2)c(=O)n2nc(C3=CCOCC3)nc2n1CC(=O)Nc1ccc(C(F)(F)F)cc1Cl [Example 141, N-(2-((1-(4-(2-((2-Chloro-4-(trifluoromethyl)phenyl)amino)-2-oxoethyl)-2-(3,6-dihydro-2H-pyran-4-yl)-5-ethyl-7-oxo-4,7-dihydro-[1,2,4]triazolo[1,5-a]pyrimidin-6-yl)piperidin-4-yl)amino)-2-oxoethyl)benzamide]
- pIC50 [1]: < 6.00
- pIC50 [2]: < 6.00

Structure (SMILES): CCc1c(N2CCN(C(=O)CNC(=O)c3ccno3)CC2)c(=O)n2nc(C3=CCOCC3)nc2n1CC(=O)Nc1ccc(C(F)(F)F)cc1F [Example 220, N-(2-(4-(2-(3,6-Dihydro-2H-pyran-4-yl)-5-ethyl-4-(2-((2-fluoro-4-(trifluoromethyl)phenyl)amino)-2-oxoethyl)-7-oxo-4,7-dihydro-[1,2,4]triazolo[1,5-a]pyrimidin-6-yl)piperazin-1-yl)-2-oxoethyl)isoxazole-5-carboxamide]
- pIC50 [1]: > 7.00
- pIC50 [2]: > 7.00

Structure (SMILES): CCc1c(N2CCN(C(=O)CNc3ncnc4[nH]ccc34)CC2)c(=O)n2nc(C3=CCOCC3)nc2n1CC(=O)Nc1ccc(C(F)(F)F)cc1Cl [Example 363, 2-(6-(4-((7H-Pyrrolo[2,3-d]pyrimidin-4-yl)glycyl)piperazin-1-yl)-2-(3,6-dihydro-2H-pyran-4-yl)-5-ethyl-7-oxo-[1,2,4]triazolo[1,5-a]pyrimidin-4(7H)-yl)-N-(2-chloro-4-(trifluoromethyl)phenyl)acetamide]
- pIC50 [1]: < 6.00
- pIC50 [2]: < 6.00

Structure (SMILES): CCc1c(N2CCN(C(=O)c3cc(-c4cc(OC)ncc4F)[nH]n3)CC2)c(=O)n2nc(C3=CCOCC3)nc2n1CC(=O)Nc1ccc(C(F)(F)F)cc1Cl [Example 9, N-(2-Chloro-4-(trifluoromethyl)phenyl)-2-(2-(3,6-dihydro-2H-pyran-4-yl)-5-ethyl-6-(4-(5-(5-fluoro-2-methoxypyridin-4-yl)-1H-pyrazole-3-carbonyl)piperazin-1-yl)-7-oxo-[1,2,4]triazolo[1,5-a]pyrimidin-4(7H)-yl)acetamide]
- pIC50 [1]: < 6.00
- pIC50 [2]: 6.00 to 7.00

Structure (SMILES): CCc1c(N2CCN(C(=O)c3nc(C(F)(F)F)c[nH]3)CC2)c(=O)n2nc(C3=CCOCC3)nc2n1CC(=O)Nc1ccc(C(F)(F)F)cc1Cl [Example 1, N-(2-Chloro-4-(trifluoromethyl)phenyl)-2-(2-(3,6-dihydro-2H-pyran-4-yl)-5-ethyl-7-oxo-6-(4-(4-(trifluoromethyl)-1H-imidazole-2-carbonyl)piperazin-1-yl)-[1,2,4]triazolo[1,5-a]pyrimidin-4(7H)-yl)acetamide]
- pIC50 [1]: 6.00 to 7.00
- pIC50 [2]: 6.00 to 7.00

Structure (SMILES): CCc1c(N2CCN(C(=O)c3[nH]c4ccncc4c3F)CC2)c(=O)n2nc(C3=CCOCC3)nc2n1CC(=O)Nc1ccc(C(F)(F)F)cc1Cl [Example 300, N-(2-Chloro-4-(trifluoromethyl)phenyl)-2-(2-(3,6-dihydro-2H-pyran-4-yl)-5-ethyl-6-(4-(3-fluoro-1H-pyrrolo[3,2-c]pyridine-2-carbonyl)piperazin-1-yl)-7-oxo-[1,2,4]triazolo[1,5-a]pyrimidin-4(7H)-yl)acetamide]
- pIC50 [1]: 6.00 to 7.00
- pIC50 [2]: 6.00 to 7.00

Structure (SMILES): CCc1c(N2CCN(C(=O)CNC(=O)c3cccc(NC)c3F)CC2)c(=O)n2nc(C3=CCOCC3)nc2n1CC(=O)Nc1ccc(C(F)(F)F)cc1Cl [Example 287, N-(2-(4-(4-(2-((2-Chloro-4-(trifluoromethyl)phenyl)amino)-2-oxoethyl)-2-(3,6-dihydro-2H-pyran-4-yl)-5-ethyl-7-oxo-4,7-dihydro-[1,2,4]triazolo[1,5-a]pyrimidin-6-yl)piperazin-1-yl)-2-oxoethyl)-2-fluoro-3-(methylamino)benzamide]
- pIC50 [1]: > 7.00
- pIC50 [2]: > 7.00

Structure (SMILES): CCc1c(N2CCN(C(=O)c3c(OC)cn[nH]c3=O)CC2)c(=O)n2nc(C3=CCOCC3)nc2n1CC(=O)Nc1ccc(C(F)(F)F)cc1Cl [Example 314, N-(2-Chloro-4-(trifluoromethyl)phenyl)-2-(2-(3,6-dihydro-2H-pyran-4-yl)-5-ethyl-6-(4-(3-hydroxy-5-methoxypyridazine-4-carbonyl)piperazin-1-yl)-7-oxo-[1,2,4]triazolo[1,5-a]pyrimidin-4(7H)-yl)acetamide]
- pIC50 [1]: < 6.00
- pIC50 [2]: 6.00 to 7.00

Structure (SMILES): CCc1c(N2CCN(C(=O)CNC(=O)c3ncco3)CC2)c(=O)n2nc(N3CCOCC3)nc2n1CC(=O)Nc1ccc(C(F)(F)F)cc1Cl [Example 249, N-(2-(4-(4-(2-((2-Chloro-4-(trifluoromethyl)phenyl)amino)-2-oxoethyl)-5-ethyl-2-morpholino-7-oxo-4,7-dihydro-[1,2,4]triazolo[1,5-a]pyrimidin-6-yl)piperazin-1-yl)-2-oxoethyl)oxazole-2-carboxamide]
- pIC50 [1]: > 7.00
- pIC50 [2]: > 7.00

Structure (SMILES): CCc1c(N2CCN(C(=O)CNC(=O)c3cc(NC)ccc3F)CC2)c(=O)n2nc(N3CCOCC3)nc2n1CC(=O)Nc1ccc(C(F)(F)F)cc1Cl [Example 250]
- pIC50 [1]: > 7.00
- pIC50 [2]: > 7.00

Structure (SMILES): CCc1c(N2CCN(C(=O)c3cnc4sc(Cl)nc4c3O)CC2)c(=O)n2nc(C3=CCOCC3)nc2n1CC(=O)Nc1ccc(C(F)(F)F)cc1F [Example 308, 2-(6-(4-(2-Chloro-7-hydroxythiazolo[5,4-b]pyridine-6-carbonyl)piperazin-1-yl)-2-(3,6-dihydro-2H-pyran-4-yl)-5-ethyl-7-oxo-[1,2,4]triazolo[1,5-a]pyrimidin-4(7H)-yl)-N-(2-fluoro-4-(trifluoromethyl)phenyl)acetamide]
- pIC50 [1]: > 7.00
- pIC50 [2]: > 7.00
